The values below come from ChEMBL document CHEMBL4184088, “Synthesis and biological evaluation of novel doxorubicin-containing ASGP-R-targeted drug-conjugates” (Bioorg Med Chem Lett, 2018).

Data set [1] in a line: Drug uptake in human HEK293 cells assessed as assessed as doxorubicin conjugates accumulation at 10 uM after 6 hrs by fluorescence assay. Format: ADME, cell-based. Particulars: hek293, 6 h.
For data set [2], the system named is HepG2. The data set is described as follows: Cytotoxicity against human HepG2 cells assessed as reduction in cell viability at 100 umol after 48 hrs by MTS assay relative to control. Type of data set: functional.
The subject of data set [3] is HepG2. The data set is described as follows: Cytotoxicity against human HepG2 cells assessed as cell viability up to 70 uM after 2 hrs by MTS assay. Type of data set: functional, cell-based. A general note: Formazan colour is commonly taken as a measure of viable cells.
Data set [4] is described as follows: Drug uptake in human HepG2 cells assessed as doxorubicin conjugates accumulation at 10 uM after 6 hrs by fluorescence assay. Type of data set: ADME, cell-based. Particulars: hepg2, 6 h.
A short description of data set [5]: Drug localization in human HepG2 cell cytoplasm at assessed as doxorubicin conjugates accumulation 10 uM after 24 hrs by DAPI staining-based fluorescence microscopic analysis. Format: ADME. Particulars: hepg2, 24 h.
Data set [6] in a line: Drug uptake in human HEK293 cells assessed as doxorubicin conjugates accumulation at 10 uM after 24 hrs by fluorescence assay. Format: ADME, cell-based. Particulars: hek293, 24 h.
Data set [7] deals with HepG2. Briefly: Cytostatic activity against human HepG2 cells assessed as cell viability at 0.02 to 70 uM after 48 hrs by MTS assay. Type of data set: functional, cell-based.
A short description of data set [8]: Drug localization in human HepG2 cell nucleus assessed as doxorubicin conjugates accumulation at 10 uM after 24 hrs by DAPI staining-based fluorescence microscopic analysis. Format: ADME. Particulars: hepg2, 24 h.

Activity calls are given as the source filed them. The rule behind the calls is not given here.

On to `COc1cccc2c1C(=O)c1c(O)c3c(c(O)c1C2=O)C[C@@](O)(C(=O)CO)C[C@@H]3O[C@H]1C[C@H](NC(=O)CCCc2cn([C@@H]3O[C@H](CO)[C@H](O)[C@H](O)[C@H]3NC(C)=O)nn2)[C@H](O)[C@H](C)O1`, for which the Drug uptake entry in data set [1], in data set [4], in data set [5] and in data set [6] was “Active” each time. Further, the Activity in the data set with HepG2 [2] is given as 20 - 30%. Moreover, the result in the data set with HepG2 [3] was inactive.

As for `C=CCO[C@@H]1O[C@H](Cn2cc(CCCC(=O)N[C@H]3C[C@H](O[C@H]4C[C@](O)(C(=O)CO)Cc5c(O)c6c(c(O)c54)C(=O)c4c(OC)cccc4C6=O)O[C@@H](C)[C@H]3O)nn2)[C@H](O)[C@H](O)[C@H]1NC(C)=O`, the Drug uptake entry in data set [1], in data set [4] and in data set [5] was “Active” throughout. Moreover, the Activity in the data set on HepG2 [2] is recorded as 20 - 30%. In addition, the outcome in the data set with HepG2 [3] was inactive.

For the compound `COc1cccc2c1C(=O)c1c(O)c3c(c(O)c1C2=O)C[C@@](O)(C(=O)CO)C[C@@H]3O[C@H]1C[C@H](NC(=O)CCCc2cn(CCO[C@@H]3O[C@H](CO)[C@H](O)[C@H](O)[C@H]3NC(C)=O)nn2)[C@H](O)[C@H](C)O1`, the Drug uptake entry in data set [1], in data set [4] and in data set [5] was “Active” throughout. For the same compound, the Activity in the data set with HepG2 [2] is recorded as 20 - 30%. Besides, the result with HepG2 [3] was inactive.

Turning to `COc1cccc2c1C(=O)c1c(O)c3c(c(O)c1C2=O)C[C@@](O)(C(=O)CO)C[C@@H]3O[C@H]1C[C@H](N)[C@H](O)[C@H](C)O1.Cl` [DOXORUBICIN HYDROCHLORIDE], the outcome with HepG2 [7] was Active. Besides, the result in the data set with HepG2 [3] was inactive. The Drug uptake entry in data set [8] and in data set [4] was “Not Active” in each case.
